In US9567301B2, “Pyrrol-1-yl benzoic acid derivatives useful as myc inhibitors” (Whitehead Institute for Biomedical Research, priority 2012, dated 2017):
“Also recorded” adds a separate entry of the source. Where two headings read alike, the source gives them in different places.

Columns and labels:
[1] = tested on: Jurkat cells; assay: Cell viability assay (ATPlite), Jurkat; assay type: cell-based, human; details: Homo sapiens, Jurkat; class symbols; NA: not active under assay conditions
Experimental: (§1) This assay was used for the H2171 and MM1S cell data shown in Table 2, and for the Jurkat (an immortalized line of human T lymphocyte cells), Ly1 (OCI-Ly1 human non-Hodgkin lymphoma cell line), Ly4 (OCI-Ly4 human non-Hodgkin lymphoma cell line), H2172 (NCI-H2172 human non-small cell lung cancer cell line), and CA-46 (a human Burkitt's lymphoma cell line) cell data shown in Table 3 and FIG. 12. Cells were counted and adjusted to 60,000 cells/mL. Using a Biotek EL406, 50 μL of cells are media were distributed into 384 well white plates from Thermo. Immediately after plating, compound in DMSO was distributed to plates. For large plate sets, cells were returned to 37° C. incubator while not in use.
(§2) Compounds were added to plates using a 100 nL 384 well pin transfer manifold on a Janus workstation. Stocks were arrayed in 10 point quadruplicate dose response in DMSO stock in 384 well Greiner compound plates. After addition of compound, plates were incubated for three days in a 37° C. incubator.
(§3) Cell viability was read out using ATPlite from Perkin Elmer. Plates were removed from the incubator and brought to room temperature prior to use. Lyophilized powder was resuspended in lysis buffer and diluted 1:2 with DI water. 25 μL of this solution was added to each well using the Biotek liquid handler. Plates were sealed with adherent aluminum seals prior to vortexing and spinning down at 1000 g for 1 minute. Plates were incubated for 15 minutes at room temperature before signal was read on an Envision Plate Reader.

[2] = molecular target: T1, c-Myc/Max/Ebox DNA (Homo sapiens, UniProt P01106); assay: c-Myc/Max/Ebox DNA AlphaScreen assay; assay type: binding; set-up: An exemplary assay uses full-length human c-Myc and Max proteins; his6 (cleaved yes); made in house
T1 sequence (P01106 16-454): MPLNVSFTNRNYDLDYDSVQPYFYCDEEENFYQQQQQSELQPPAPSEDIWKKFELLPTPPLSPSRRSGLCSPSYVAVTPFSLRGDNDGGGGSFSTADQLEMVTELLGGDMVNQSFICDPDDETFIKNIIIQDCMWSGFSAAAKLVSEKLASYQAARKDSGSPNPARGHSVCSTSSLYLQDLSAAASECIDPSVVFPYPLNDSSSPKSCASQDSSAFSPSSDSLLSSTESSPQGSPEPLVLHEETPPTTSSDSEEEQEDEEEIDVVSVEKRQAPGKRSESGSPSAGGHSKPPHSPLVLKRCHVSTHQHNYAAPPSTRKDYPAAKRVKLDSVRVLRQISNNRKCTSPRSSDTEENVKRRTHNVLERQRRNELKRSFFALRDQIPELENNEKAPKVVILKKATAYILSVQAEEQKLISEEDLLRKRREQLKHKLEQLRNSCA
Outline: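 Proximity read-out of Myc–Max–DNA complex formation in 50 mM HEPES pH 8.0 with 500 μM DTT. Compounds contact tag-free c-Myc (25 nM), Ebox oligo (10 nM) and acceptor beads first. His6-Max (1.25 nM) with donor beads follows, then 2 h incubation in low light with DMSO ≤2% v/v.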

[3] = tested on: H2171 cells; assay: Cell viability assay (ATPlite), H2171; assay type: cell-based, human; details: Homo sapiens, NCI-H2171, 72 h, cell viability, three days, ATPlite; NA: inactive under assay conditions
Outline: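 Cells seeded at 60,000 cells/mL and dosed immediately by pin transfer in 10-point quadruplicate dose response from DMSO stocks. After three days at 37 °C, viability was read by ATPlite luminescence after 15 min at room temperature.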

[4] = tested on: MM1S cells; assay: Cell viability assay (ATPlite), MM1S; assay type: cell-based, human; details: cell viability, three days, ATPlite; NA: inactive under assay conditions
Experimental: as §1, §2, §3

[5] = molecular target: T1, c-Myc/Max/Ebox DNA; assay: Gelshift assay, c-Myc/Max/Ebox DNA complex formation; assay type: binding
Experimental: FIG. 5 describes validation of Compound 63 activity using an orthogonal biochemical assay. […] Decreasing amounts of 63 was added to purified c-Myc, Max and biotinylated Ebox DNA. Biotinylated Ebox DNA complexed with protein (either c-Myc/Max or Max/Max) or free (bottom band) was assayed using a 6% retardation gel, transferred to a membrane and detected using straptavidin-HRP. […]
AlphaScreen hits can be validated using orthogonal biochemical assays such as a gelshift assay (also called an electrophoretic mobility shift assay) with purified components or cellular lysates. FIG. 5 (left) illustrates how the AlphaScreen hit 63 was validated using a gelshift assay with purified c-Myc, Max and Ebox DNA. […] Compounds and analogs were then examined for potency and selectivity against structurally similar transcription factor:DNA complexes, such as Max/Max/Ebox DNA and MITF/MITF/Ebox DNA. Data in FIG. 9 show how analogs can be tested for potency against structurally similar transcription factors and how medicinal chemistry optimization can drive potency and selectivity against different transcription factor:DNA complexes. […] The selectivity among structurally similar transcription factors can also provide insights into compound mechanism of action. […] Cellular assays can compliment the biochemical analyses to measure the cellular potency of compounds to induce cellular phenotypes expected as a result of loss of transcription factor function. This includes gene expression analysis, chromatin immunoprecipitation (ChIP) analysis, cellular proliferation analysis and cell state analysis. Gene expression analysis can be performed using qRT-PCR, Nanostring technology, microarray technology, or RNA-seq technology to study transcript changes following treatment with compound. ChIP analysis can be performed on the factor of interest to study if compound treatment alters its genomic occupancy. Cellular proliferation and cell state analysis can indicate if the compound alters cell cycle progression or cellular identity. Thus, the approach using biochemical and cellular assays with large chemical libraries or focused libraries of hits identified in high throughput screens can serve as a platform to develop inhibitors of transcription factor function.

[6] = molecular target: T2, c-Myc (Homo sapiens, UniProt P01106); assay: c-Myc chromatin immunoprecipitation assay in H2171 cells; assay type: cell-based; details: 100 μM, 4 hours
T2 construct: c-Myc genomic occupancy in H2171 cells treated with DMSO, Compound 63 (100 μM) or CC34301 (100 μM); endogenous in cells; host or cells: H2171
T2 sequence (P01106 whole entry): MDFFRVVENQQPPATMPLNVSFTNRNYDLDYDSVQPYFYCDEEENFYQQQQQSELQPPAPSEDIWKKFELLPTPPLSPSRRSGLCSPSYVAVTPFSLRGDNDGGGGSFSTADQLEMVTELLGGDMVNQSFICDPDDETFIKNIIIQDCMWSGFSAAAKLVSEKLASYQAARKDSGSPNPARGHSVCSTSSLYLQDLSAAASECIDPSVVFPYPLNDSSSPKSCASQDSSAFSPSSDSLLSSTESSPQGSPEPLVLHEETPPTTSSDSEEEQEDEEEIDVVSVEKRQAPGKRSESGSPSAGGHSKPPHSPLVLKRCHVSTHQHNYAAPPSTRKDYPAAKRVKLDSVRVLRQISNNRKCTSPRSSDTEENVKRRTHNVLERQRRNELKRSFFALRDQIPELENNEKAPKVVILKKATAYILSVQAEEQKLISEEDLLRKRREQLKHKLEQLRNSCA
Experimental: FIG. 6 depicts a c-Myc chromatin immunoprecipitation assay to investigate c-Myc genomic occupancy in H2171 cells treated with DMSO, Compound 63 (100 μM) or CC34301 (100 μM) for 4 hours. Standard chromatin immunoprecipitation procedures were followed using an antibody specific to c-Myc (Santa Cruz, catalogue number sc-764). Quantitative PCR analysis was performed on four c-Myc binding sites (Npm1, Mat2a, Hnrnpa2b1, and Rp123a) and one non-binding site (Neg region) and normalized to a background region to determine the fold enrichment over background.

[7] = class symbols, NA: not active under assay conditions, read-out: Myc/Max IC50

| EC50 [1] [µM] | IC50 [2, 7] [µM] | SMILES | also measured |
| --- | --- | --- | --- |
| 10 to 100 | 1 to 10 | Cc1ccc(C)n1-c1cc(C(=O)N2CCN(c3ccc(C(=O)O)cc3)CC2)ccc1C(=O)O [Compound 199] |  |
| ≥ 100 | 10 to 100 | Cc1ccc(C)n1-c1cc(C(=O)N2CCCC(c3ccccc3O)C2)ccc1C(=O)O (stereo not drawn) [Compound 207] |  |
| 10 to 100 | ≥ 100 | Cc1ccc(C(F)(F)F)n1-c1ccccc1C(=O)O [Compound 192] |  |
| ≥ 100 | 1 to 10 | Cc1ccc(C)n1-c1ncccc1C(=O)O [Compound 134] |  |
| ≥ 100 | 10 to 100 | COc1ccc(C2CCCN(C(=O)c3ccc(C(=O)O)c(-n4c(C)ccc4C)c3)C2)cc1 (stereo not drawn) [Compound 185] |  |
| ≥ 100 | 1 to 10 | Cc1ccc(C)n1-c1cc(CNCc2cccc(C(=O)O)c2)ccc1C(=O)O [Compound 196] |  |
| ≥ 100 | 10 to 100 | Cc1ccc(C)n1-c1cc(C(=O)N2CCN(C(=O)c3cncc(F)c3)CC2)ccc1C(=O)O [Compound 226] |  |
| 10 to 100 | 10 to 100 | COc1ccc(C(=O)N2CCN(C(=O)c3ccc(C(=O)O)c(-n4c(C)ccc4C)c3)CC2)cc1 [Compound 218] |  |
|  |  | Cc1ccc(C)n1-c1ccccc1C(=O)O [Compound 63, 2-(2,5-dimethylpyrrolyl)benzoic acid] | EC50 [3]: 96.9 µM; EC50 [4]: 322 µM; selectivity c-Myc/Max versus Max/Max ([5]; at tested doses (FIG. 5)): selectivity towards c-Myc/Max; c-Myc/Max/Ebox DNA complex formation ([5]; decreasing amounts of compound (FIG. 5)): reduced c-Myc/Max/Ebox DNA complex formation in a dose-dependent manner; also recorded: inhibits c-Myc/Max/Ebox DNA complex formation (top band) in a dose dependent manner; Max genomic occupancy [6]: largely unchanged; c-Myc protein levels [6]: unchanged; c-Myc occupancy at binding sites (Npm1, Mat2a, Hnrnpa2b1, Rp123a) ([6]; compared to DMSO or CC34301): reduced c-Myc occupancy; IC50 ([2]; c-Myc/Max/Ebox DNA AlphaScreen, NA: inactive under assay conditions, read-out: Biochemical IC50): 24.2 µM |
